Literature values as cited in patent US5668134A, “Method for preventing or reducing photosensitivity and/or phototoxicity reactions to medications” (priority 1994, dated 1997).
Like-named read-outs stand apart in the source and are kept apart here.

Tested on: skin
Settings: cited from earlier work

## CNC1=Nc2ccc(Cl)cc2C(c2ccccc2)=[N+]([O-])C1 [Chlordiazepoxide]
Table 1
  Action Spectrum: 290-360 nm
  Type of Photoreaction: Photoallergic

## CN(C)N=Nc1[nH]cnc1C(N)=O [DTIC]
Table 1
  Type of Photoreaction: Phototoxic

## C=C[C@H]1C[N@@]2CC[C@H]1C[C@@H]2[C@@H](O)c1ccnc2ccc(OC)cc12 [Quinidine]
Table 1
  Type of Photoreaction: Photoallergic
  Action Spectrum: 320-400 nm

## CCCNC(=O)NS(=O)(=O)c1ccc(Cl)cc1 [chlorpropamide]
  Action Spectrum: 290-360 nm

## O=c1[nH]cc(F)c(=O)[nH]1 [fluorouracil, 5-fluoro-2,4 (1H,3H)-pyrimidinedione]
Table 1
  Type of Photoreaction: Phototoxic

## COC1=CC(=O)C[C@@H](C)[C@]12Oc1c(Cl)c(OC)cc(OC)c1C2=O [griseofulvin]
  Action Spectrum: 320-400 nm

## CN(Cc1cnc2nc(N)nc(N)c2n1)c1ccc(C(=O)N[C@@H](CCC(=O)O)C(=O)O)cc1 [methotrexate]
Table 1
  Type of Photoreaction: Phototoxic

## CCn1cc(C(=O)O)c(=O)c2ccc(C)nc21 [nalidixic acid]
Table 1
  Action Spectrum: 320-400 nm

## C=C[C@H]1C[N@@]2CC[C@H]1C[C@H]2[C@H](O)c1ccnc2ccc(OC)cc12 [quinine]
Table 1
  Type of Photoreaction: Photoallergic
  Action Spectrum: 320-400 nm

## CCCCNC(=O)NS(=O)(=O)c1ccc(C)cc1 [tolbutamide]
Table 1
  Action Spectrum: 290-360 nm

## CC[C@]1(O)C[C@@H]2CN(CCc3c([nH]c4ccccc34)[C@@](C(=O)OC)(c3cc4c(cc3OC)N(C)[C@H]3[C@@](O)(C(=O)OC)[C@H](OC(C)=O)[C@]5(CC)C=CCN6CC[C@]43[C@@H]65)C2)C1 [vinblastine]
Table 1
  Type of Photoreaction: Phototoxic
